# Source: patent US20250290151A1, “Differentially-Methylated Regions of the Genome Useful as Markers of Embryo-Adult Transitions” (priority 2019, published 2025)
# Values joined by “and” are separate entries in the source; they are usually repeats but may differ in a detail not shown here. Equal entries are not always repeated.
# Key:
# adult bone marrow MSCs = test: H2O2-mediated apoptosis (survival) before and after knock-down of COX7A1; format: cell-based, human; conditions: 300 uM H2O2
# Method: (§1) Similarly, normal pre-EFT vascular progenitors were more sensitive to apoptosis at 37 uM of camptothecin (39% apoptosis) compared to adult aortic endothelial counterparts (25.5% apoptosis). In addition, H2O2-mediated apoptosis was measured in post-EFT cells (adult bone marrow MSCs) before and after knock-down of COX7A1 expression.
# [1] = test system: adult aortic endothelial counterparts; test: TUNEL apoptosis assay after camptothecin, adult aortic endothelial cells; format: cell-based, human; conditions: 37 uM camptothecin, 24 h
# Method: (§2) The pre-EFT (DC) fibrosarcoma cell line HT1080 was infected with lentivirus expressing COX7A1 together with a control line expressing green fluorescent protein (GFP). The resulting cells were treated with 0, 0.37, and 37 uM camptothecin to generate a DNA damage response and apoptosis. TUNEL (TdT-mediated dUTP-X nick end labeling) adds label to termini of ssDNA and dsDNA. Readout used was fluorescent nuclei read by microscopy. In brief, cell lines were cultured in 96-well plates at 5000 cells/well and grown over night. The following day, the growth medium was removed and replaced with growth medium containing compounds and controls. After 24 h, the cells are fixed for 20 minutes using 4% PFA. Plates are stored at 4 deg C. in PBS until processing. Fixed cells were permeabilized with 0.1% Triton X-100 and 0.1% sodium citrate for 2 minutes on ice. […] 9 images per well were collected and analyzed for total cell number and number of cells stained for apoptosis.
# as §1
# [2] = test system: fibrosarcoma cell line HT1080; test: TUNEL apoptosis assay after camptothecin, HT1080 expressing COX7A1 vs GFP control; format: cell-based, human; conditions: 0, 0.37 and 37 uM camptothecin, 24 h, p<0.05
# Method: as §2, §1
# [3] = test system: normal pre-EFT vascular progenitors; test: TUNEL apoptosis assay after camptothecin, pre-EFT vascular progenitors; format: cell-based, human; conditions: 37 uM camptothecin, 24 h
# Method: as §2, §1
# [4] = test system: xenograft breast tumors derived from the breast cancer cell line MCF-7; test: COX7A1 expression in MCF-7 xenograft breast tumors after doxorubicin; format: in vivo; conditions: MCF-7 xenograft breast tumors treated with doxorubicin; controls 3.84 and 4.52
# Description: The present invention instead teaches the contrary, that these surviving CSCs are instead cancer cells that display a post-EFT pattern (i.e. a more mature pattern) of gene expression. Using the expression of the gene COX7A1 as a transcriptional marker of pre- or post-EFT cells wherein COX7A1 is expressed in post-EFT cells, we observe that pancreatic cancer with ablated KRAS leading to pancreatic CSCs, results in increased COX7A1 and CAT (also a post-EFT marker), not decreased as predicted by current models (FIG. 10). In addition, the treatment of xenograft breast tumors derived from the breast cancer cell line MCF-7 with the anti-tumor anthracycline antibiotic doxorubicin results in COX7A1 RFU levels of 5.04 and 5.57 compared to controls of 3.84 and 4.52 in controls, again indicative of the more mature state of surviving cells following chemotherapy. In addition, in the example of rectal cancer, levels of COX7A1 expression were 92.7 RFUs following radiotherapy compared to 75 RFUs in untreated rectal cancer (p<0.05). […]
structure (smiles),measurement,setting,value
OO [H2O2],cells surviving,"adult bone marrow MSCs; MSCs after knockdown of COX7A1 (iTR modality), p<0.05",59.8%
same,cells surviving,adult bone marrow MSCs; normal adult bone marrow MSCs,82.4%
CC[C@@]1(O)C(=O)OCc2c1cc1n(c2=O)Cc2cc3ccccc3nc2-1 [camptothecin],apoptosis,[1],25.5%
same,sensitivity to apoptosis (TUNEL),[2],significantly decreased sensitivity to apoptosis
same,apoptosis,[3],39%
COc1cccc2c1C(=O)c1c(O)c3c(c(O)c1C2=O)C[C@@](O)(C(=O)CO)C[C@@H]3O[C@H]1C[C@H](N)[C@H](O)[C@H](C)O1 [doxorubicin],COX7A1 RFU levels,[4],5.04 RFU and 5.57 RFU
